The target in data set [1] is T1, apotransferrin (Homo sapiens, UniProt P02787).
T1 construct: purchased Sigma-Aldrich T1147
Description: SEC-ICP-MS with single serum protein solution: apotransferrin. In kind it is binding. Conditions: 200 μM apotransferrin, 100 μM compound, 100 mM PB pH 7.4, 37 °C, 2 h. As for the experimental part: (§1) All investigated proteins were purchased from commercial suppliers: Albumin (Sigma-Aldrich, A8763), IgG (Athens Research, 16–16–090707), α1-antitrypsin (Sigma-Aldrich, A6150) and apotransferrin (Sigma-Aldrich, T1147). […] The compound stocks were diluted into the protein solution to reach a final concentration of 100 μM (27 μL protein and 3 μL compound). The samples were incubated at 37 °C for 2 h and analyzed as described for the SEC-ICP-MS studies (Tables S6 and S7).

Data set [2] deals with T2, albumin (human serum) (Homo sapiens, UniProt P02768).
T2 construct: Human serum was purchased from Sigma-Aldrich; tissue Sigma-Aldrich; host or cells: human serum
Briefly: SEC-ICP-MS albumin binding in human serum. In kind it is in vitro ADME. Conditions: for Pt195 in HMWF (albumin-bound) / Pt195 in LMWF: 100 µM, 37 °C; for Bound to albumin: from 1 to 24 h. As for the experimental part:
Blood of Bab/c mice was collected under anesthesia via heart puncture. […] Human serum was purchased from Sigma-Aldrich. In order to guarantee a stable pH, all sera were buffered with 150 mM phosphate to pH 7.4 by dissolving the necessary amounts of Na2HPO4 and NaH2PO4 directly in the serum. […] The samples were then incubated in the autosampler at 37 °C and analyzed every hour for 4 or 5 h and after 24 h. Between each sample a pure water blank was measured. For measurements with 10 min intervals the same procedure was followed, but the blank measurements were omitted. For SEC-ICP-MS measurements an Agilent 1260 Infinity system coupled to an Agilent 7800 ICP-HRMS equipped with a dynamic reaction cell was used. Oxygen (purity 5.5, Messer Austria GmbH, Gumpoldskirchen, Austria) was used as reaction gas.

Data set [3] deals with T3, albumin (Homo sapiens, UniProt P02768).
T3 construct: purchased Sigma-Aldrich A8763
Description: SEC-ICP-MS with single serum protein solution: albumin. Conditions: 200 μM albumin, 100 μM compound, 100 mM PB pH 7.4, 37 °C, 2 h. In kind it is binding. The procedure: as §1

Data set [4] has as its system CT26 colon cancer cells. Conditions: i.v.
Description: CT26 cells (5 × 10^5 in serum-free medium) were injected s.c. into the right flank of male Balb/c mice. […] 0.9% NaCl served as solvent control. Animals were controlled for distress development every day and tumor size was assessed regularly by caliper measurement. Tumor volume was calculated using the formula: (length × width^2)/2. In the overall survival experiments, mice were sacrificed by cervical dislocation in the case of a tumor length >20 mm, tumor ulceration or body weight loss >20%.
Where [5] appears, read: equimolar to 9 mg/kg oxaliplatin, days 4, 8, 12.

“And” between values parts separate entries of the source, which are not always exact repeats. Identical values can stand only once.

T2 sequence (P02768 25-609): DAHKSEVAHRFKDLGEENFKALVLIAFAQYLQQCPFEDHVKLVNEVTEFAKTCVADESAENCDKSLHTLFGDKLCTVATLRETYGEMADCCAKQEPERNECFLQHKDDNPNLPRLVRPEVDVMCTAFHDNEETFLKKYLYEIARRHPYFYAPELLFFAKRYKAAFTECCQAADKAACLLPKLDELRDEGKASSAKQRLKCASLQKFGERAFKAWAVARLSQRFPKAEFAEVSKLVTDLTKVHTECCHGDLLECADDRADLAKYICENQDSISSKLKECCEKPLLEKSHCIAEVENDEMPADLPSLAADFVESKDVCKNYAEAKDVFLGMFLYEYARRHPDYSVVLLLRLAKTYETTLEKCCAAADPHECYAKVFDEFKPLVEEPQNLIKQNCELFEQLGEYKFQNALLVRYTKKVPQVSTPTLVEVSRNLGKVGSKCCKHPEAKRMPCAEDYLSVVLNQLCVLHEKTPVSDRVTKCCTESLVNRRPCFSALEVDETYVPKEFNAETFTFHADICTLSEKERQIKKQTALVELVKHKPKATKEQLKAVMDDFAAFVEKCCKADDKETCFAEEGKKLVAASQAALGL
T3 sequence (P02768 25-609): as above
T1 sequence (P02787 20-698): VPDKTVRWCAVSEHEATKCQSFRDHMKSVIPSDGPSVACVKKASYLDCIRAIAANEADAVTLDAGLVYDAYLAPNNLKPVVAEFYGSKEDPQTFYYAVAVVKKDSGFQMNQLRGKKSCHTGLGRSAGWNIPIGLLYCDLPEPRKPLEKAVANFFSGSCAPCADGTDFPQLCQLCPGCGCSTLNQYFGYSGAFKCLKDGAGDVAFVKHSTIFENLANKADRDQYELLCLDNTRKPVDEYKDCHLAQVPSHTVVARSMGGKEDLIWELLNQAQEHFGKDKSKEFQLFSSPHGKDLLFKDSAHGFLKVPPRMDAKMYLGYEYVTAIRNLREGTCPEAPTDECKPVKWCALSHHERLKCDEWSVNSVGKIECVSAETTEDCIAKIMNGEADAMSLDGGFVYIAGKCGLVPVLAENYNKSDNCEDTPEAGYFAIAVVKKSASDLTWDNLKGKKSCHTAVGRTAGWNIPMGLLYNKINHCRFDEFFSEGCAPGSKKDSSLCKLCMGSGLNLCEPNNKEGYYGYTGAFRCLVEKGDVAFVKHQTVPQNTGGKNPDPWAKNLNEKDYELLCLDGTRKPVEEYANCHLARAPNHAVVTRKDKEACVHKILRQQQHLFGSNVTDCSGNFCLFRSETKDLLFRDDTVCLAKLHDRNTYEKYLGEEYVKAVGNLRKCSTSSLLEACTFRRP

For the compound `CC(=O)[O][Pt-2]12([O]C(=O)NCCOCCOCCOCCOC(=O)C3=CCCCC3S(=O)(=O)Nc3ccc(F)cc3F)([NH2+]C3CCCCC3[NH2+]1)[O]C(=O)C(=O)[O]2` (mixture of isomers) [DFSA-Ox-OAc, (OC-6–34)-Acetato[(1R,2R)-1,2-cyclohexane-1,2-diamino][(1-(6-(N-(2,4-difluorophenyl)-sulfamoyl)-cyclohex-1-en-1-yl)-1-oxo-2,5,8,11-tetraoxatridecan-13-yl)-carbamato]-oxalato platinum(IV)], the “Platinum in the HMWF (protein-bound)” value in data set [1] is on record as below 5%; in data set [3] it was 26%. Moreover, the “Pt195 in HMWF (albumin-bound)” value in data set [2] (pH 7.4, 0 h) is recorded as 0%; in data set [2] (pH 7.4, 1 h) it was 34%; in data set [2] (pH 7.4, 2 h) it was 50%; in data set [2] (pH 7.4, 3 h) it was 59%; in data set [2] (pH 7.4, 4 h), 63%; in data set [2] (pH 7.4, 5 h), 66%. Further, the “Pt195 in HMWF (albumin-bound)” value in data set [2] (pH 7.4, 24 h) was found to be 59%. Besides, the “Pt195 in LMWF” value in data set [2] (pH 7.4, 0 h) was 100%; in data set [2] (pH 7.4, 1 h), 66%; in data set [2] (pH 7.4, 2 h), 50%; in data set [2] (pH 7.4, 3 h) it was 41%; in data set [2] (pH 7.4, 4 h) it was 37%; in data set [2] (pH 7.4, 5 h), 34%. The “Pt195 in LMWF” value in data set [2] (pH 7.4, 24 h) is 41%. In addition, the Maximum albumin binding in data set [2] (reached after several hours) amounted to 66%.

With `CC(=O)[O][Pt-2]12([O]C(=O)NCCOCCOCCOCCOCCN3C(=O)C=CC3=O)([NH2+][C@@H]3CCCC[C@H]3[NH2+]1)[O]C(=O)C(=O)[O]2` [Mal-Ox-OAc, (OC-6–34)-Acetato[(1R,2R)-1,2-cyclohexane-1,2-diamino][ (14-(2,5-dioxo-2,5-dihydro-1H-pyrrol-1-yl)-3,6,9,12-tetraoxatetradecyl)-carbamato]-oxalato platinum(IV)], the “Impact on tumor growth” value in data set [4] (setting [5]) was “distinctly reduced tumor growth”. Also, the “Increase of overall survival compared to solvent control” value in data set [4] (setting [5]) is recorded as around 50%. Moreover, in data set [4] (setting [5]), the “Prolonged overall survival compared to solvent-treated animals” value is “about 10 days”. The “Platinum in the HMWF (protein-bound)” value in data set [1] is given as “less than 10%”; in data set [3], 75%. Also, the “Pt195 in HMWF (albumin-bound)” value in data set [2] (pH 7.4, 0 h) was 29%; in data set [2] (pH 7.4, 1 h), 94% and ~90%; in data set [2] (pH 7.4, 2 h) it was 94%; in data set [2] (pH 7.4, 3 h), 94%; in data set [2] (pH 7.4, 4 h), 94%; in data set [2] (pH 7.4, 5 h) it was 94%. Besides, in data set [2] (pH 7.4, 24 h), the “Pt195 in HMWF (albumin-bound)” value is listed as 93%. Also, the “Pt195 in LMWF” value was found to be 71% in data set [2] (pH 7.4, 0 h); 6% in data set [2] (pH 7.4, 1 h); 6% in data set [2] (pH 7.4, 2 h); 6% in data set [2] (pH 7.4, 3 h); 6% in data set [2] (pH 7.4, 4 h); 6% in data set [2] (pH 7.4, 5 h). Further, in data set [2] (pH 7.4, 24 h), the “Pt195 in LMWF” value was determined as 7%. Further, in data set [2], the Bound to albumin is given as around 90%.

In the case of `CC(=O)[O][Pt-2]12([O]C(=O)NCCOCCOCCOCCOc3ccc(-c4nnc(S(C)(=O)=O)o4)cc3)([NH2+][C@@H]3CCCC[C@H]3[NH2+]1)[O]C(=O)C(=O)[O]2` [PODS-Ox-OAc, (OC-6–34)-Acetato[(1R,2R)-1,2-cyclohexane-1,2-diamino][(2-(2-(2-(2-(4-(5-(methylsulfonyl)-1,3,4-oxadiazol-2-yl)-phenoxy)-ethoxy)-ethoxy)-ethoxy)-ethyl)-carbamato]-oxalato platinum(IV)], the “Impact on tumor growth” value in data set [4] (setting [5]) is given as “slight remission or stable disease”. The “Increase of overall survival compared to solvent control” value in data set [4] (setting [5]) is given as around 80%. In data set [4] (three administrations over 2 weeks (days 4, 8, 12)), the “Tolerability (body weight)” value is “well-tolerated”. Also, the figures for the “Platinum in the HMWF (protein-bound)” value in data set [1] and in data set [3] were “less than 10%” and 69%, respectively. Moreover, the “Pt195 in HMWF (albumin-bound)” value in data set [2] (pH 7.4, 0 h) was 2% and < 5%; in data set [2] (pH 7.4, 1 h) it was 87% and ~90%; in data set [2] (pH 7.4, 2 h), 91%; in data set [2] (pH 7.4, 3 h) it was 92%; in data set [2] (pH 7.4, 4 h), 92%; in data set [2] (pH 7.4, 5 h), 92%. Moreover, the “Pt195 in HMWF (albumin-bound)” value in data set [2] (pH 7.4, 24 h) is listed as 92%. The “Pt195 in LMWF” value in data set [2] (pH 7.4, 0 h) is recorded as 98%; in data set [2] (pH 7.4, 1 h) it was 13%; in data set [2] (pH 7.4, 2 h), 9%; in data set [2] (pH 7.4, 3 h), 8%; in data set [2] (pH 7.4, 4 h), 8%; in data set [2] (pH 7.4, 5 h), 8%. In addition, the “Pt195 in LMWF” value in data set [2] (pH 7.4, 24 h) is on record as 8%. This compound also had a Bound to albumin in data set [2] of around 90%.

Source of the values: PMC12261219, “Comparative Evaluation of Thiol- and Amine-Conjugating Moieties for Endogenous Albumin Binding after Intravenous Administration” (ACS Pharmacology & Translational Science, 2025).
